Experimental data: patent US11939314B2, “Quinolin-2-one derivatives” (MERCK PATENT GMBH, priority 2016, dated 2024)

Columns and labels:
c-Kit(V654A) = target: T1, c-Kit(V654A) (Homo sapiens, UniProt P10721, V654A); assay: c-Kit(V654A) assay; type: biochemical; conditions: recombinant human c-Kit aa 544-end, 200 μM ATP, 1.4E-06 means 1.4×10^−6, read-out: Inhibition (IC50) of c-KIT (V654A)
T1 construct: amino acids 544-end containing the V654A mutation; GST (N)
Method in brief: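 Radiometric filter-binding read-out: substrate 33P incorporation counted by scintillation after P30 filtermat washes in 75 mM phosphoric acid and methanol. Enzyme: N-GST recombinant human c-Kit aa 544-end carrying V654A.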

PDGFRalpha(V561D) = target: T2, PDGFRalpha(V561D) (Homo sapiens, UniProt P16234, V561D); assay: PDGFRalpha(V561D) assay; type: biochemical; conditions: recombinant human PDGFRalpha aa 550-end, 200 μM ATP, 1.4E-06 means 1.4×10^−6, read-out: Inhibition (IC50) of PDGFRα (V561D)
T2 construct: recombinant human PDGFRalpha, amino acids 550end containing the V561 D mutation; 6His (N)
T2 sequence (P16234 550-1089 V561D): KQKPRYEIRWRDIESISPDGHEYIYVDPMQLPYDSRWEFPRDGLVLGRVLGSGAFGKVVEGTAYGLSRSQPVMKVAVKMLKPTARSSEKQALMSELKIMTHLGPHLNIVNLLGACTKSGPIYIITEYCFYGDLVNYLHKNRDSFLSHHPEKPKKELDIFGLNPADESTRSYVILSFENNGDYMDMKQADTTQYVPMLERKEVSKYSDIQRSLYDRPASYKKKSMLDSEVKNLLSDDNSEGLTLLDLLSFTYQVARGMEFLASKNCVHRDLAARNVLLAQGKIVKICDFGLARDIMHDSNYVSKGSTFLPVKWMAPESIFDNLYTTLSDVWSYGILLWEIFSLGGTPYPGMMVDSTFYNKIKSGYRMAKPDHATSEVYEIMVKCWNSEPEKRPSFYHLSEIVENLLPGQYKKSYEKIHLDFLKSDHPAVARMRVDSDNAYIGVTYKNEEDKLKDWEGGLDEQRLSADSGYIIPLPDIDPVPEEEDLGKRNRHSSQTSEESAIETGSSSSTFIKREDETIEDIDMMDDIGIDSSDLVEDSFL
Method in brief: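 Radiometric filter-binding assay: substrate phosphorylation by recombinant N-His-tagged human PDGFRα 550-end V561D was quenched with 3% phosphoric acid after 40 min at room temperature, then counted.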

T1 sequence (P10721 544-976 V654A): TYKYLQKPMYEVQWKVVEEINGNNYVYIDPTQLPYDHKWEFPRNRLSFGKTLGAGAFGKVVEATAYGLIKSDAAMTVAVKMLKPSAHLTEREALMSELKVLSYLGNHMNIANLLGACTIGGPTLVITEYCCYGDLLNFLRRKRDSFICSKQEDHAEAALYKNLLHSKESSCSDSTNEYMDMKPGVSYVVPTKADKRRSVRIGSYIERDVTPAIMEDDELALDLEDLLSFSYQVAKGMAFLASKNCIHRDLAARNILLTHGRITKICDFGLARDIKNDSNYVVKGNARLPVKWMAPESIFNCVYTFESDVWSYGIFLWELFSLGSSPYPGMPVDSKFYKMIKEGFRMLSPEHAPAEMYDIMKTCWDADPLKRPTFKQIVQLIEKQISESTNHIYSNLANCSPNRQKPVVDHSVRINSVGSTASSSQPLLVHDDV

IC50 (c-Kit(V654A)) [nM]	IC50 (PDGFRalpha(V561D)) [nM]	SMILES
21	5.9	CN1CCN(C(=O)c2ccc(-n3cc(-c4cc5cc(F)ccc5[nH]c4=O)nn3)cc2)CC1=O [A92, 6-fluoro-3-{1-[4-(4-methyl-3-oxo-piperazine-1-carbonyl)-phenyl]-1H-[1,2,3]triazol-4-yl}-1H-quinolin-2-one]
320	310	COc1ccc2cc(-c3cn(-c4ccc(C(=O)N5CCOCC5)cc4)nn3)c(=O)[nH]c2c1 [A93, 7-methoxy-3-{1-[4-(morpholine-4-carbonyl)-phenyl]-1H-[1,2,3]triazol-4-yl}-1H-quinolin-2-one]
3600	2300	O=C(c1ccc(-n2cc(-c3cc4cncnc4[nH]c3=O)nn2)cc1)N1CCOCC1 [A94, 6-{1-[4-(Morpholine-4-carbonyl)-phenyl]-1H-[1,2,3]triazol-4-yl}-8H-pyrido[2,3-d]pyrimidin-7-one]
60	54	O=c1[nH]c2ccc(F)cc2cc1-c1cn(-c2cccc(OCCN3CCOCC3)c2)nn1 [A94a, 6-fluoro-3-{1-[3-(2-morpholin-4-yl-ethoxy)-phenyl]-1H-[1,2,3]triazol-4-yl}-1H-quinolin-2-one]
9	370	CN1CCN(C(=O)c2ccc(-n3cc(-c4cc5c(F)cc(F)cc5[nH]c4=O)nn3)cc2)CC1=O [A95, 5,7-difluoro-3-{1-[4-(4-methyl-3-oxo-piperazine-1-carbonyl)-phenyl]-1H-[1,2,3]triazol-4-yl}-1H-quinolin-2-one]
5.2	0.33	CN1CCN(C(=O)c2ccc(-n3cc(-c4cc5cc(Cl)ccc5[nH]c4=O)nn3)cc2)CC1=O [A96, 6-chloro-3-{1-[4-(4-methyl-3-oxo-piperazine-1-carbonyl)-phenyl]-1H-[1,2,3]triazol-4-yl}-1H-quinolin-2-one]
17	10	CN1CCN(C(=O)c2ccc(-n3cc(-c4cc5ccc(Cl)cc5[nH]c4=O)nn3)cc2)CC1=O [A97, 7-chloro-3-{1-[4-(4-methyl-3-oxo-piperazine-1-carbonyl)-phenyl]-1H-[1,2,3]triazol-4-yl}-1H-quinolin-2-one]
180	75	O=C1OCCN1c1ccc(-n2cc(-c3cc4cc(F)ccc4[nH]c3=O)nn2)cc1 [A98, 6-fluoro-3-{1-[4-(2-oxo-oxazolidin-3-yl)-phenyl]-1H-[1,2,3]triazol-4-yl}-1H-quinolin-2-one]
33	76	O=c1[nH]c2ccc(F)cc2cc1-c1cn(-c2ccc(N3CCCS3(=O)=O)cc2)nn1 [A99, 3-{1-[4-(1,1-dioxo-1|6-isothiazolidin-2-yl)-phenyl]-1H-[1,2,3]triazol-4-yl}-6-fluoro-1H-quinolin-2-one]
20	63	O=C(c1ccc(-n2cc(-c3cc4cc(F)ccc4[nH]c3=O)nn2)cc1)N1CCC(N2CCCC2)C1 (centres unmarked) [A100, 3-{1-[4-([1,3′]bipyrrolidinyl-1′-carbonyl)-phenyl]-1H-[1,2,3]triazol-4-yl}-6-fluoro-1H-quinolin-2-one]
18	54	CC(=O)N1CCN(CCOc2ccc(-n3cc(-c4cc5cc(F)ccc5[nH]c4=O)nn3)cc2)CC1 [A100a, 3-(1-{4-[2-(4-acetyl-piperazin-1-yl)-ethoxy]-phenyl}-1H-[1,2,3]triazol-4-yl)-6-fluoro-1H-quinolin-2-one]
33	290	CC(=O)N1CCN(CCOc2ccc(-n3cc(-c4cc5cc(F)c(F)cc5[nH]c4=O)nn3)cc2)CC1 [A101, 3-(1-{4-[2-(4-acetyl-piperazin-1-yl)-ethoxy]-phenyl}-1H-[1,2,3]triazol-4-yl)-6,7-difluoro-1H-quinolin-2-one]
11	48	CC(=O)OC1CCN(C(=O)c2ccc(-n3cc(-c4cc5cc(F)ccc5[nH]c4=O)nn3)cc2)CC1 [A102, acetic acid 1-{4-[4-(6-fluoro-2-oxo-1,2-dihydro-quinolin-3-yl)-[1,2,3]triazol-1-yl]-benzoyl}-piperidin-4-yl ester]
8.6	35	CC(=O)OC1CCCN(C(=O)c2ccc(-n3cc(-c4cc5cc(F)ccc5[nH]c4=O)nn3)cc2)C1 (centres unmarked) [A103, acetic acid 1-{4-[4-(6-fluoro-2-oxo-1,2-dihydro-quinolin-3-yl)-[1,2,3]triazol-1-yl]-benzoyl}-piperidin-3-yl ester]
24	150	O=C(c1ccc(-n2cc(-c3cc4cc(F)c(F)cc4[nH]c3=O)nn2)cc1)N1CCC(N2CCCC2)C1 (centres unmarked) [A104, 3-{1-[4-([1,3′]bipyrrolidinyl-1′-carbonyl)-phenyl]-1H-[1,2,3]triazol-4-yl}-6,7-difluoro-1H-quinolin-2-one]
9.7	340	O=C(c1ccc(-n2cc(-c3cc4c(F)cc(F)cc4[nH]c3=O)nn2)cc1)N1CCC(N2CCCC2)C1 (centres unmarked) [A105, 3-{1-[4-([1,3′]bipyrrolidinyl-1′-carbonyl)-phenyl]-1H-[1,2,3]triazol-4-yl}-5,7-difluoro-1H-quinolin-2-one]

IC50 (c-Kit(V654A)) [nM]	IC50 (PDGFRalpha(V561D)) [nM]	SMILES
9.1	0.9	COCC1CCN(C(=O)c2ccc(-n3cc(-c4cc5cc(F)ccc5[nH]c4=O)nn3)cc2)C1 (centres unmarked) [A106, 6-fluoro-3-{1-[4-(3-methoxymethyl-pyrrolidine-1-carbonyl)-phenyl]-1H-[1,2,3]triazol-4-yl}-1H-quinolin-2-one]
44	23	O=C(c1cccc(-n2cc(-c3cc4cc(F)ccc4[nH]c3=O)nn2)c1)N1CCC(N2CCCC2)C1 (centres unmarked) [A107, 3-{1-[3-([1,3′]bipyrrolidinyl-1′-carbonyl)-phenyl]-1H-[1,2,3]triazol-4-yl}-6-fluoro-1H-quinolin-2-one]
83	81	O=C(c1cccc(-n2cc(-c3cc4cc(F)c(F)cc4[nH]c3=O)nn2)c1)N1CCC(N2CCCC2)C1 (centres unmarked) [A108, 3-{1-[3-([1,3′]bipyrrolidinyl-1′-carbonyl)-phenyl]-1H-[1,2,3]triazol-4-yl}-6,7-difluoro-1H-quinolin-2-one]
12	3.4	COCC1CCN(C(=O)c2ccc(-n3cc(-c4cc5cc(F)c(F)cc5[nH]c4=O)nn3)cc2)C1 (centres unmarked) [A109, 6,7-difluoro-3-{1-[4-(3-methoxymethyl-pyrrolidine-1-carbonyl)-phenyl]-1H-[1,2,3]triazol-4-yl}-1H-quinolin-2-one]
39	28	CN1CCN(C(=O)c2ccc(-n3cc(-c4cc5cc(F)ccc5[nH]c4=O)nn3)cc2)CCC1=O [A110, 6-fluoro-3-{1-[4-(4-methyl-5-oxo-[1,4]diazepane-1-carbonyl)-phenyl]-1H-[1,2,3]triazol-4-yl}-1H-quinolin-2-one]
7.7	18	CO[C@@H]1CCN(C(=O)c2ccc(-n3cc(-c4cc5cc(F)ccc5[nH]c4=O)nn3)cc2)C1 [A111, 6-fluoro-3-{1-[4-((R)-3-methoxy-pyrrolidine-1-carbonyl)-phenyl]-1H-[1,2,3]triazol-4-yl}-1H-quinolin-2-one]
16	64	CO[C@H]1CCN(C(=O)c2ccc(-n3cc(-c4cc5cc(F)ccc5[nH]c4=O)nn3)cc2)C1 [A112, 6-fluoro-3-{1-[4-((S)-3-methoxy-pyrrolidine-1-carbonyl)-phenyl]-1H-[1,2,3]triazol-4-yl}-1H-quinolin-2-one]
8.6	36	CO[C@@H]1CCN(C(=O)c2ccc(-n3cc(-c4cc5cc(F)c(F)cc5[nH]c4=O)nn3)cc2)C1 [A113, 6,7-difluoro-3-{1-[4-((R)-3-methoxy-pyrrolidine-1-carbonyl)-phenyl]-1H-[1,2,3]triazol-4-yl}-1H-quinolin-2-one]
20	140	CO[C@H]1CCN(C(=O)c2ccc(-n3cc(-c4cc5cc(F)c(F)cc5[nH]c4=O)nn3)cc2)C1 [A114, 6,7-difluoro-3-{1-[4-((S)-3-methoxy-pyrrolidine-1-carbonyl)-phenyl]-1H-[1,2,3]triazol-4-yl}-1H-quinolin-2-one]
180	1400	CN(C)CCc1ccc(-n2cc(-c3cc4cc(F)c(F)cc4[nH]c3=O)nn2)cc1 [A115, 3-{1-[4-(2-dimethylamino-ethyl)-phenyl]-1H-[1,2,3]triazol-4-yl}-6,7-difluoro-1H-quinolin-2-one]
160	1500	O=c1[nH]c2cc(F)c(F)cc2cc1-c1cn(-c2ccc(CCN3CCCC3)cc2)nn1 [A115a, 6,7-difluoro-3-{1-[4-(2-pyrrolidin-1-yl-ethyl)-phenyl]-1H-[1,2,3]triazol-4-yl}-1H-quinolin-2-one]
28	11	O=C(c1ccc(-n2cc(-c3cc4ccc(F)cc4[nH]c3=O)nn2)cc1)N1CCNCC1 [A117, 7-fluoro-3-{1-[4-(piperazine-1-carbonyl)-phenyl]-1H-[1,2,3]triazol-4-yl}-1H-quinolin-2-one]
16	5	CN1CCN(C(=O)c2ccc(-n3cc(-c4cc5ccc(F)cc5[nH]c4=O)nn3)cc2)CC1 [A118, 7-fluoro-3-{1-[4-(4-methyl-piperazine-1-carbonyl)-phenyl]-1H-[1,2,3]triazol-4-yl}-1H-quinolin-2-one]
9	46	O=C(c1ccc(-n2cc(-c3cc4c(F)cccc4[nH]c3=O)nn2)cc1)N1CCNCC1 [A119, 5-fluoro-3-{1-[4-(piperazine-1-carbonyl)-phenyl]-1H-[1,2,3]triazol-4-yl}-1H-quinolin-2-one]
280	230	O=C(c1ccc(-n2cc(-c3cc4cccc(F)c4[nH]c3=O)nn2)cc1)N1CCNCC1 [A120, 8-fluoro-3-{1-[4-(piperazine-1-carbonyl)-phenyl]-1H-[1,2,3]triazol-4-yl}-1H-quinolin-2-one]
